Test results as given in patent US11413278B2, “Compounds and methods for promoting stress resistance” (priority 2015, dated 2022).
pEC50: −log10 of the molar value. Where “and” joins values, the source holds several entries; their conditions need not be identical. Equal entries are not always repeated. Entries after “also recorded” stand apart in the source; their conditions may differ. Where two headings read alike, the source gives them in different places.

Experiments:
in vitro = type: cell-based, human; settings: human
human protein targets = settings: PubChem database queries; cited from earlier work
[1] = test system: human dermal fibroblast (HDF) primary cells; assay: H2O2-resistance in primary human dermal fibroblasts; type: cell-based; settings: for fold induction at 10 µM: Homo sapiens; for Assay 6: H2O2-resistant, at 10 uM, human dermal fibroblast (HDF) primary cells: YES/NO
[2] = test system: HTB-178 lung tumor cells (EGFR+, PIK3CA+, RB1−, TP53−); assay: Killing effects on HTB-178 tumor cells; type: cell-based, human
WI-38 cells = settings: for Percentage of propidium iodide-positive dead cells (no H2O2 stress treatment), at 10 uM: negative control 0.41% ± 0.23%; for PI cell-death imaging without H2O2 (indicating potential toxicity): Assay 8(k), without H2O2, at 10 uM; for PI-positive dead cells under normal conditions: control 0.4±0.2%
Experimental: WI-38 cells were seeded on 384-well plates for 24 hrs and then incubated with small molecules for 24 hrs. […] Images were collected on an INCell Analyzer 2000 (GE) and analyzed with the Developer software.

SENP6 = molecular target: T1, SENP6 (Homo sapiens, UniProt Q9GZR1); settings: 2 screens; 10.0 μM or 12. μM; cited from earlier work
T1 sequence (Q9GZR1 1-1112): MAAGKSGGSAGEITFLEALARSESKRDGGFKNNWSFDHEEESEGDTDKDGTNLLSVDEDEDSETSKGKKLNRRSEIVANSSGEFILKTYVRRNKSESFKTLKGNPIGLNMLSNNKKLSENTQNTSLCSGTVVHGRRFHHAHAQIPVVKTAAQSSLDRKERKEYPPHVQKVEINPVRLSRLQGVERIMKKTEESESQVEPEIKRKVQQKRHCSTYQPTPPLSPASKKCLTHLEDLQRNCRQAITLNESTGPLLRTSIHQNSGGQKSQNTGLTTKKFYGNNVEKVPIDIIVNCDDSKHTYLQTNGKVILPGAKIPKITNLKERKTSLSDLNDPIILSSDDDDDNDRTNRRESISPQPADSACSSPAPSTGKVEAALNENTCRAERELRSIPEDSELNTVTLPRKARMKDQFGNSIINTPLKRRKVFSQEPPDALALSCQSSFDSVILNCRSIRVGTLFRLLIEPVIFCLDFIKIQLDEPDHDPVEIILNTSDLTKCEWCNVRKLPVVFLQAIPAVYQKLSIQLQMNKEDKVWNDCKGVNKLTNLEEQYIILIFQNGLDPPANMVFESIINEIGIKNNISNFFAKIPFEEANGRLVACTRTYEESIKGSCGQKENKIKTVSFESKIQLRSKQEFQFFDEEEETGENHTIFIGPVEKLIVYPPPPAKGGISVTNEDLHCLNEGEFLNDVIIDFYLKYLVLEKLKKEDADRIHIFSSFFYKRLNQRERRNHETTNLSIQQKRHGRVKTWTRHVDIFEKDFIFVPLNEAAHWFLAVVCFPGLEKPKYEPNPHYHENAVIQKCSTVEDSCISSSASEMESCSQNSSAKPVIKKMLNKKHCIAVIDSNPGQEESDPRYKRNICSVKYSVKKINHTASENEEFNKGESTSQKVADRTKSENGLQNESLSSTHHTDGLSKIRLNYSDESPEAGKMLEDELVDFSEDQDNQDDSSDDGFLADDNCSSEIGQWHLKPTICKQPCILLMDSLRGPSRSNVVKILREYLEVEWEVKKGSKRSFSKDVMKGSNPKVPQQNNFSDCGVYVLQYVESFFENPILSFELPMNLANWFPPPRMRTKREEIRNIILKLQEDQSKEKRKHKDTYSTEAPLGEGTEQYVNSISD

SENP8 = molecular target: T2, SENP8 (Homo sapiens, UniProt Q96LD8); settings: Gr-1F: 3 screens, 10.0 μM to 12. μM; O13: 1 screen, 20. μM; cited from earlier work
T2 sequence (Q96LD8 1-212): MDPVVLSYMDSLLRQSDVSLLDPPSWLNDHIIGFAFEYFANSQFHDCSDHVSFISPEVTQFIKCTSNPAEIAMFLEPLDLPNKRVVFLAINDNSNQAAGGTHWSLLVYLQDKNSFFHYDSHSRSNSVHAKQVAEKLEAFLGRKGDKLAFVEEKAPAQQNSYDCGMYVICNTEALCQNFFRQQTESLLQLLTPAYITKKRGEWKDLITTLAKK

NFKBIA = settings: two screens; read-out: NFKBIA induction, EC50; cited from earlier work
[3] = Experiment 1, HDF cells, read-out: Experiment 1, HDF cells (under H2O2 stress treatment), at 10 uM (fold change)
[4] = Experiment 2, HDF cells, read-out: Experiment 2, HDF cells (under H2O2 stress treatment), at 10 uM (fold change)

SMILES | cytotoxicity at 24 h, 10 uM (in vitro) [%] | Potential targets: human protein targets (confirmed) (human protein targets) | fold induction at 10 µM [1, 3] | fold induction at 10 µM [1, 4] | Assay 6: H2O2-resistant, at 10 uM, human dermal fibroblast (HDF) primary cells [1] | Potential killing effects on HTB-178 tumor cells, 1st ([2]; Assay 1(y), at 10 uM) | Percentage of propidium iodide-positive dead cells (no H2O2 stress treatment), at 10 uM (WI-38 cells) | PI cell-death imaging without H2O2 (indicating potential toxicity) (WI-38 cells) | Percentage of propidium iodide-positive (dead) cells under normal conditions (qualitative) (WI-38 cells; WI-38, no H2O2) | PI-positive dead cells under normal conditions (WI-38 cells; WI-38, no H2O2) | SENP6 inhibition (SENP6) [%] | SENP8 inhibition (SENP8) | pEC50 (NFKBIA) | Assay 21: Potential killing effects on HTB-178 tumor cells ([2]; 10 uM, YES/NO) | Toxicity / viability of HTB-178 lung tumor cells ([2]; 10 μM, preliminary data) | Potential killing effects on HTB-178 tumor cells, 2nd ([2]; Assay 1(y), at 10 uM, 2nd)
O=C(NCc1cccnc1)/C(=C/c1ccc(-c2ccc(Cl)cc2)o1)S(=O)(=O)c1ccccc1 [Gr-7C] | 60 | ABHD5, ADRB2, ATXN2, BARD1, BRCA1, CFTR, CHRM4, CYP2C19,; also recorded: EPAS1, GMNN, GPR183, HIF1A, HNF4A, IDH1, IL1B, KCNJ1, MDM2,; also recorded: MDM4, MITF, NCOA1, NCOA2, NCOA3, NFE2L2, NOD1, NOD2, NOD2,; also recorded: NPBWR1, NPSR1, NPY1R, NPY2R, NR2E3, NR2F2, NR5A1, NR5A2, PLIN5,; also recorded: RIPK2, S1PR1, S1PR2, TDP1, TNF, VDR | 0.074 | 8.33 | YES | – | – | – | – | – | – | – | – | – | – | –
NS(=O)(=O)c1ccc(NC(=O)c2ccc([N+](=O)[O-])o2)cc1 [Gr-1A] | 30 | – | 3.89 | 52.5 | YES | YES; | 0.79% ± 0.36%, | – | – | – | – | – | – | – | – | –
Cc1ccc(NC(=O)c2ccc([N+](=O)[O-])o2)cc1C [Gr-1F] | 50 | CASP3, CFTR, GMNN, IDH1, IL1B, JAK2, SENP6, SENP7, SENP8, STAT1, and TDP1 | 5.84 | 52.3 | YES | – | 3.27% ± 0.82%, | YES | increased the percentage | 3.3±0.8% | ~80 | 60%-80% | – | – | – | –
O=[N+]([O-])c1ccccc1S(=O)(=O)Nc1cccc2cccnc12 [Gr-3A] | – | ADRBK1, APLNR, BARD1, BAZ2B, BRCA1, CCR6, DRD3, GMNN, IL1B,; also recorded: MDM2, MDM4, NFE2L2, NFKBIA, NOD1, NOD2, OPRK1, RBBP8, RELA,; also recorded: SIX1, SMAD3, TDP1 | 2.38 | 1.67 | YES | – | 0.54% ± 0.16%, | – | – | – | – | – | 4.96 and 4.92 | – | – | –
O=C(/C(=C/c1ccc(Cl)cc1)c1nc2ccccc2[nH]1)c1ccccc1 [Gr-4D] | – | ABHD5, ATXN2, BARD1, BRCA, CFTR, CHRM1, CHRM4, CYP2C9, CYP3A4,; also recorded: DRD3, EPAS1, GMNN, GPR183, HIF1A, HNF4A, HTT, IDH1, IL1B, MAPT,; also recorded: MDM2, MDM4, MITF, NFKB1, NOD1, NOD2, PLIN5, RELA, SMAD3, TDP1,; also recorded: TNF, TNFRSF10B, TUBB | 1.06 | 2 | YES | YES; | 0.42% ± 0.15%, | – | – | – | – | – | – | – | – | –
COc1cccc(/C=C2\CN(C)C/C(=C\c3cccc(OC)c3OC)C2=O)c1OC [O23] | 40 | – | 1.68 | 52.4 | YES | YES; | 2.61% ± 1.37%, | YES | – | 2.6%±1.4% | – | – | – | – | – | –
CC1C(=O)C(C)C(c2cc(Cl)ccc2O)NC1c1cc(Cl)ccc1O (stereo not shown) [O6] | – | ADAM10, ADAM17, ATXN2, GLP1R, IDH1, IL1B, KCNE1, KCNQ1, NTSR1 | 285 | 22.2 | YES | YES; | 0.36% ± 0.10%, | – | – | – | – | – | – | – | – | –
Nc1ccccc1S(=O)(=O)Nc1cccc2cccnc12 [Gr-3C] | – | GAPDH, NFKBIA, RELA | 6.59 | 1.69 | YES | – | 0.57% ± 0.24%, | – | – | – | – | – | 5.07 and 4.96 | – | – | –
O=C(NCc1cccnc1)/C(=C\c1cccc(Oc2ccccc2)c1)S(=O)(=O)c1ccccc1 [Gr-7A] | 84 | – | 1.2 | 4.11 | YES | YES; | – | – | – | – | – | – | – | YES | exerted more pronounced toxicity; also recorded: significantly reduce the viability | YES.
O=C(c1ccc([N+](=O)[O-])o1)N1CCc2ccccc21 [O13] | – | CASP3, DRD2, GMNN, HCRTR1, NR5A1, NR5A2, SENP6, SENP8, SSP1, and TDP1 | 11.2 | 60.5 | YES | YES; | 0.69% ± 0.12%, | – | – | – | ~50 | ~50% | – | – | – | –
